In patent US12064420B2, “Tie-2 activators targeting the Schlemm's canal” (EyePoint Pharmaceuticals, Inc., priority 2019, dated 2024):

Columns and labels:
[1] = tested on: ocular normotensive patients; assay: Phase 1B multiple-ascending dose study of Compound 1 ophthalmic solution, IOP; type: in vivo, human; conditions: for mean diurnal IOP reduction in the study eye, relative to the 15 mg/mL dose: ANCOVA model
Procedure: A multi-center, double-masked, randomized, placebo-controlled, multiple-ascending dose (MAD) cohort study in up to 48 ocular normotensive patients was conducted. For subjects in cohort 1, IOP was between 12 mmHg and 23 mmHg (inclusive) in both eyes on Day −1. Cohorts 2-4 were limited to subjects with pre-treatment IOP≥16 mmHg and ≤23 mmHg in at least one eye and ≤23 mmHg in both eyes at all timepoints on two separate days of IOP assessment during screening. Subjects who received additional carbonic-anhydrase inhibiting drops or cholinergic agonist drops were washed-out for at least 7 days prior to Day −1.
On Day −1 (day before first day of dosing), day 1, and day 7, for all cohorts, a baseline diurnal time point assessment of IOP in both eyes occurred at pre-dose, and 2, 4, and 8 hours post-dose relative to the planned dosing time the following day.
For cohort 1, on the morning of day 1 and day 2, all subjects were administered a single dose (one drop of approximately 30 μL of the dosing solution (Compound 1 or placebo) corresponding to the respective dose level) into the right eye only. If no AEs related to the investigational medicinal product (IMP) that represented a cause for concern were observed, then treatment was administered to both eyes once daily on the mornings of days 3 to 7. For all subsequent cohorts, dose administration was to both eyes on all 7 days (except cohort 4, in which treatment was administered in both eyes twice daily (AM and PM) on days 1-6 with a final single dose in both eyes on the morning of day 7).
Diurnal time point assessments of IOP were performed on day 1 and day 7 in both eyes at pre-dose, and 2, 4, and 8 hours post-dose in all cohorts.
The Compound 1 ophthalmic solution used for the trial was formulated as a sterile unpreserved solution of Compound 1 (0.5% w/v to 4.0% w/v, or 5 mg/mL to 40 mg/mL; as the sodium salt) in a vehicle containing 15% w/v HPβCD and 1% w/v mannitol and adjusted to a pH of 6.5-7.5 with 1N Hydrochloric Acid and/or 1N Sodium Hydroxide. The solution was filtered through sterile 0.22-μm filters, and 0.5 mL was aseptically filled into single-use sterile dose administration bottles suitable for ophthalmic delivery. Placebo was the same as the vehicle for the Compound 1 ophthalmic solution. Compound 1 was stored at United States Pharmacopeia (USP) controlled room temperature.

[2] = tested on: patients with moderate to severe non-proliferative diabetic retinopathy; assay: Phase 2 48-week trial: IOP after subcutaneous Compound 1 QD or BID, non-proliferative diabetic retinopathy; type: in vivo, human; conditions: for mean reduction in IOP compared to placebo: MMRM ANCOVA; for Week 12 IOP change from BL, mean (SD) / Week 12 IOP, mean (SD) / Week 36 IOP change from BL, mean (SD) / Week 36 IOP, mean (SD) / Week 48 IOP change from BL, mean (SD) / Week 48 IOP, mean (SD) / Week 24 IOP change from BL, mean (SD) / Week 24 IOP, mean (SD): averaged over both eyes; for Week 24 IOP change from BL, mean (SD) / Week 24 IOP, mean (SD): measured predose
Text: Eligible subjects were aged 18 to 80 years with moderate to severe NPDR. The major inclusion criteria for the qualified eyes included Early Treatment Diabetic Retinopathy Study (ETDRS) Severity Score≥43 and ≤53, no evidence of central involved diabetic macular edema (DME) and ETDRS≥70 letters using the ETDRS visual acuity charts. Study eye ocular exclusion criteria included uncontrolled glaucoma defined as IOP≥30 mm Hg on maximum IOP reduction therapy. Subjects were randomized 1:1:1 to either Compound 1, 15 mg once daily (QD), Compound 1, 15 mg twice daily (BID), or placebo BID treatment groups. Subjects self-administered the masked study medication (Compound 1 or placebo) supplied as sterile pre-filled single-use syringes. Subjects visited the clinical site monthly during the 48-week treatment period. A battery of comprehensive ophthalmic evaluations including IOP assessments were conducted every 12-weeks with either applanation tonometry or Tono-Pen® and the methodology was consistent throughout the study. On Day 1 and Week 24, IOP was measured prior to dosing. IOP data were analyzed using a mixed-model repeated measures ANCOVA, with visit as the repeated measure within subject. The model included change from baseline as the dependent variable. The p-value from the model was adjusted by baseline IOP. 167 patients with moderate to severe non-proliferative diabetic retinopathy (NPDR) without diabetic macular edema (DME) and a visual acuity of 20/40 or better were enrolled in a 48-week study of the effect of Compound 1 (sodium salt) in the treatment of NPDR. The IOP was measured at baseline, and at weeks 12, 24, 36, and 48. The trial consisted of three study arms: 1) patients receiving 15 mg of Compound 1 subcutaneously BID; 2) patients receiving placebo subcutaneously QD, and 15 mg of Compound 1 subcutaneously QD; and 3) patients receiving a placebo subcutaneously BID.

[3] = tested on: ocular normotensive New Zealand White rabbits; assay: IOP in ocular normotensive rabbits, topical ocular or subcutaneous Compound 1; type: in vivo, rabbit
Procedure: To examine the effect of Compound 1 on IOP, Compound 1 was delivered either by subcutaneous injection, or by topical drops to ocular normotensive New Zealand White rabbits, and IOP was followed over time (FIGS. 3A-3C). For this study, 25 female New Zealand White rabbits were administered the sodium salt of Compound 1 for seven days QD or BID topically (30 μL drop) into both eyes, or twice daily subcutaneously, or vehicle twice daily topically into both eyes. Eye drops (4% Compound 1 or vehicle) were administered, with study staff masked to treatment. Five dose groups (5 rabbits per group) were tested: 1) vehicle control—15% HPβCD (+1% dextrose); 2) 1.5% (15 mg/mL) Compound 1 BID; 3) 4% (40 mg/mL) Compound 1 BID; 4) 4% (40 mg/mL) Compound 1 QD; and 5) 10 mg/kg (40 mg/mL) Compound 1 administered subcutaneously BID. IOP measurements were performed at baseline (prior to the start of dosing), and once daily on days 2-8. Prior to performing IOP measurements, 1 to 2 drops of a 0.5% proparacaine solution were applied to the eye as a topical anesthetic. IOP measurements were performed with a pneumotonometer 2 hours after morning dosing. The only exceptions were Day 8 measurements, which were performed 24 hours after the final dose. IOP data were analyzed using a mixed-design two-factor ANOVA, with time as the within-subjects factor and treatment as the between-subjects factor. IOP values for Day 7 and Day 8 were analyzed using one-way ANOVA. The change from baseline IOP on Day 7 and on Day 8 was calculated for each animal, and the resulting values were analyzed using one-way ANOVA. Area under the curve (AUC) was calculated for all morning IOP measurements throughout the study for each group; AUC values for the different groups were analyzed using one-way ANOVA. Where appropriate, post hoc testing was performed using Tukey's multiple comparisons tests. The level of significance was set at 0.05.

[4] = 10 mg/kg BID subcutaneous injection

COC(=O)N[C@@H](Cc1ccccc1)C(=O)N[C@@H](Cc1ccc(NS(=O)(=O)O)cc1)c1csc(-c2cccs2)n1 [Compound 1, 4-{(S)-2-[(S)-2-(Methoxycarbonylamino)-3-phenylpropanamido]-2-[2-(thiophen-2-yl)thiazol-4-yl]ethyl}phenylsulfamic acid]
mean diurnal IOP reduction in the study eye, relative to the 15 mg/mL dose ([1]; 40 mg/mL BID topical): −2.24 mmHg | mean diurnal IOP reduction in the study eye, relative to the 15 mg/mL dose ([1]; 40 mg/mL QD topical): −1.93 mmHg | IOP on day 7 at the 0-hour, pre-dose time point ([1]; 40 mg/ml dose, 12 hours after the previous dose): persistent TOP reduction | IOP change from baseline at 2, 4, and 8 hours post-dose ([1]; 40 mg/ml dose, days 1 and 7): significant TOP reductions from baseline | mean reduction in IOP compared to placebo ([2]; 15 mg SC BID): 1.15 mmHg | Week 12 IOP change from BL, mean (SD) ([2]; 15 mg SC BID): −0.91 (3.20) mmHg | Week 12 IOP, mean (SD) ([2]; 15 mg SC BID): 14.6 (2.93) mmHg | Week 36 IOP change from BL, mean (SD) ([2]; 15 mg SC BID): −1.48 (3.48) mmHg | Week 36 IOP, mean (SD) ([2]; 15 mg SC BID): 14.0 (2.74) mmHg | Week 48 IOP change from BL, mean (SD) ([2]; 15 mg SC BID): −0.94 (3.00) mmHg | Week 48 IOP, mean (SD) ([2]; 15 mg SC BID): 14.6 (2.73) mmHg | Week 24 IOP change from BL, mean (SD) ([2]; 15 mg SC BID): −1.27 (3.31) mmHg | Week 24 IOP, mean (SD) ([2]; 15 mg SC BID): 14.2 (2.60) mmHg | mean reduction in IOP compared to placebo ([2]; 15 mg SC QD): 0.70 mmHg | Week 12 IOP change from BL, mean (SD) ([2]; 15 mg SC QD): −0.56 (2.83) mmHg | Week 12 IOP, mean (SD) ([2]; 15 mg SC QD): 15.3 (2.75) mmHg | Week 36 IOP change from BL, mean (SD) ([2]; 15 mg SC QD): −0.94 (3.39) mmHg | Week 36 IOP, mean (SD) ([2]; 15 mg SC QD): 14.9 (3.58) mmHg | Week 48 IOP change from BL, mean (SD) ([2]; 15 mg SC QD): −0.72 (2.80) mmHg | Week 48 IOP, mean (SD) ([2]; 15 mg SC QD): 15.2 (2.84) mmHg | Week 24 IOP change from BL, mean (SD) ([2]; 15 mg SC QD): −0.56 (2.99) mmHg | Week 24 IOP, mean (SD) ([2]; 15 mg SC QD): 15.3 (2.90) mmHg | IOP-lowering effect on the last day of dosing (Day 7) [3, 4]: the effect did not persist | IOP-lowering effect relative to vehicle control on Days 3 and 4 [3, 4]: significant maximum IOP-lowering effect | area under the curve for IOP values over 7 days versus vehicle, 1.5% TO BID or 10 mg/kg SC BID ([3]; 4% topical ocular QD or BID): statistically-significantly lower | time to steady-state effect on IOP ([3]; daily topical ocular dosing of 4.0%): steady-state effect on IOP was observed by Day 3 | IOP reduction, topical ocular versus subcutaneous administration ([3]; rabbits): larger with topical ocular administration than with subcutaneous administration | IOP-lowering effect versus vehicle control or 1.5% Compound 1 BID ([3]; topical ocular 4% QD and BID, 7 days): significantly larger IOP-lowering effect | IOP on Day 8, 24 hours after the last dose ([3]; two high-dose (4%) topical ocular groups): significant reduction in IOP persisted on Day 8
